US12144851B2, “Vaccinal strategy” (INSERM (INSTITUT NATIONAL DE LA SANTÉ ET DE LA RECHERCHE …, priority 2018, dated 2024)
Read-outs that look alike come from different tables or passages of the source. Where a SMILES comes first, the peptide text is derived from it. Where no end group is shown, it is not given here.

Key:
[1] = test system: MELOE-1, HLA A*0201 restricted CD8 T cell clone; conditions: for Fold change = EC50 (M) of MELOE-111-46/EC50 (M) SLP: SLP MELOE-113-27 xxxx MELOE-136-44, TNF-a response of CD8 T cell clone to SLP-loaded DC, range over independent experiments; for cross-presentation compared with full length MELOE-1 / native antigen (in words): full length MELOE-1 as reference
[2] = test system: MELOE-1, HLA DRb1*11 restricted CD4 T cell clone
[3] = read-out: EC50, cross-presentation of the HLA-A*0201-restricted MELOE-1 epitope, SLP series MELOE-1 11-23 xxxx MELOE-1 36-44, three independent experiments, FIG. 3

Row | Molecule | Fold change = EC50 (M) of MELOE-111-46/EC50 (M) SLP [1] | cross-presentation compared with full length MELOE-1 / native antigen (in words) [1] | EC50 [1, 3] [nM] | also measured
1 | TSREQFLPSEGAACPPWALSVGGTLNDECWPASL (Synthetic SLP) [SEQ ID NO: 77] | 1-3 | – | – | –
2 | MSCVGYPDEATSREQFLPSEGAACPPWHPSERISSTLNDECWPASL (cysteines drawn unpaired) [full length MELOE-1, reference compound] | – | – | – | EC50 [2]: ~70 nM
3 | TSREQFLPSEGAACPPWPLSVIITLNDECWPASL (Synthetic SLP) [SEQ ID NO: 79] | 2.3-10 | – | – | –
4 | PIVLG [PIVLG (MELOE-111-23 xxxx MELOE-136-44)] | – | hundred fold better | 3.2 | –
5 | TSREQFLPSEGAACPPWVLSVGTLNDECWPASL (Synthetic SLP) [SEQ ID NO: 71] | 3-13 | ten fold | – | –
6 | CC[C@H](C)[C@H](NC(=O)[C@H](CCCNC(=N)N)NC(=O)[C@H](CCC(=O)O)NC(=O)[C@H](CO)NC(=O)[C@@H]1CCCN1C(=O)[C@H](Cc1c[nH]cn1)NC(=O)[C@H](Cc1c[nH]c2ccccc12)NC(=O)[C@@H]1CCCN1C(=O)[C@@H]1CCCN1C(=O)[C@H](CS)NC(=O)[C@H](C)NC(=O)[C@H](C)N)C(=O)N[C@@H](CO)C(=O)N[C@@H](CO)C(=O)N[C@H](C(=O)N[C@@H](CC(C)C)C(=O)NCC(=O)NCC(=O)NCC(=O)NCC(=O)N[C@H](C(=O)N[C@@H](CC(C)C)C(=O)N[C@@H](CC(N)=O)C(=O)N[C@@H](CC(=O)O)C(=O)N[C@@H](CCC(=O)O)C(=O)N[C@@H](CS)C(=O)N[C@@H](Cc1c[nH]c2ccccc12)C(=O)N1CCC[C@H]1C(=O)N[C@@H](C)C(=O)N[C@@H](CO)C(=O)N[C@@H](CC(C)C)C(=O)O)[C@@H](C)O)[C@@H](C)O [GGGG (MELOE-124-37 xxxx MELOE-136-44), reference compound] (H-AACPPWHPSERISSTLGGGGTLNDECWPASL-OH; N-terminus and C-terminus assumed) | – | – | – | EC50 [2]: 26 nM; EC50 [1]: 1900 nM
7 | LLSV [LLSV (MELOE-111-23 xxxx MELOE-136-44)] | – | hundred fold better | 2.8 | –
8 | LVGS [LVGS (MELOE-111-23 xxxx MELOE-136-44)] | – | ten fold better presentation | 34 | –
9 | GSGS [GSGS (MELOE-111-23 xxxx MELOE-136-44)] | – | poorer cross-presentation | 430 | –
10 | CC[C@H](C)[C@H](NC(=O)[C@H](CCCNC(=N)N)NC(=O)[C@H](CCC(=O)O)NC(=O)[C@H](CO)NC(=O)[C@@H]1CCCN1C(=O)[C@H](Cc1c[nH]cn1)NC(=O)[C@H](Cc1c[nH]c2ccccc12)NC(=O)[C@@H]1CCCN1C(=O)[C@@H]1CCCN1C(=O)[C@H](CS)NC(=O)[C@H](C)NC(=O)[C@H](C)N)C(=O)N[C@@H](CO)C(=O)N[C@@H](CO)C(=O)N[C@H](C(=O)N[C@@H](CC(C)C)C(=O)N[C@@H](CC(C)C)C(=O)N[C@H](C(=O)NCC(=O)N[C@@H](CO)C(=O)N[C@H](C(=O)N[C@@H](CC(C)C)C(=O)N[C@@H](CC(N)=O)C(=O)N[C@@H](CC(=O)O)C(=O)N[C@@H](CCC(=O)O)C(=O)N[C@@H](CS)C(=O)N[C@@H](Cc1c[nH]c2ccccc12)C(=O)N1CCC[C@H]1C(=O)N[C@@H](C)C(=O)N[C@@H](CO)C(=O)N[C@@H](CC(C)C)C(=O)O)[C@@H](C)O)C(C)C)[C@@H](C)O [LVGS (MELOE-124-37 xxxx MELOE-136-44)] (H-AACPPWHPSERISSTLLVGSTLNDECWPASL-OH) | – | – | – | EC50 [2]: 14 nM; EC50 [1]: 110 nM
11 | TSREQFLPSEGAACPPWGLSVVVTLNDECWPASL (Synthetic SLP) [SEQ ID NO: 85] | 1 | – | – | –
12 | TSREQFLPSEGAACPPWGLSVGGTLNDECWPASL (Synthetic SLP) [SEQ ID NO: 81] | 1 | – | – | –
13 | TSREQFLPSEGAACPPWVLSVGGTLNDECWPASL (Synthetic SLP) [SEQ ID NO: 69] | 1.5-2 | – | – | –
14 | CC(C)C[C@H](NC(=O)[C@@H](NC(=O)CNC(=O)CNC(=O)CNC(=O)CNC(=O)[C@H](Cc1c[nH]c2ccccc12)NC(=O)[C@@H]1CCCN1C(=O)[C@@H]1CCCN1C(=O)[C@H](CS)NC(=O)[C@H](C)NC(=O)[C@H](C)NC(=O)CNC(=O)[C@H](CCC(=O)O)NC(=O)[C@H](CO)NC(=O)[C@@H]1CCCN1C(=O)[C@H](CC(C)C)NC(=O)[C@H](Cc1ccccc1)NC(=O)[C@H](CCC(N)=O)NC(=O)[C@H](CCC(=O)O)NC(=O)[C@H](CCCNC(=N)N)NC(=O)[C@H](CO)NC(=O)[C@@H](NC(=O)[C@H](C)NC(=O)[C@H](C)N)[C@@H](C)O)[C@@H](C)O)C(=O)N[C@@H](CC(N)=O)C(=O)N[C@@H](CC(=O)O)C(=O)N[C@@H](CCC(=O)O)C(=O)N[C@@H](CS)C(=O)N[C@@H](Cc1c[nH]c2ccccc12)C(=O)N1CCC[C@H]1C(=O)N[C@@H](C)C(=O)O [GGGG (MELOE-111-23 xxxx MELOE-136-44), reference compound] (H-AATSREQFLPSEGAACPPWGGGGTLNDECWPA-OH; N-terminus and C-terminus assumed) | – | poorer cross-presentation | – | EC50 [1]: 1200 nM
15 | TSREQFLPSEGAACPPWSLSVGGTLNDECWPASL (Synthetic SLP) [SEQ ID NO: 75] | 1-8 | – | – | –
16 | TSREQFLPSEGAACPPWSLSVAATLNDECWPASL (Synthetic SLP) [SEQ ID NO: 73] | 7-8 | – | – | –
17 | VLSVG [VLSVG (MELOE-111-23 xxxx MELOE-136-44)] | – | hundred fold better | 2.1 | –
18 | ASLG [ASLG (MELOE-111-23 xxxx MELOE-136-44)] | – | ten fold better presentation | 12 | –
